Key:
[1] = system: HeLa; assay: Cytotoxicity against human HeLa cells after 24 hrs by [3H]-thymidine incorporation assay; type: functional, cell-based
[2] = Cytotoxicity against human T cells assessed as cell viability after 24 hrs by annexin V/propidium iodide staining based flow cytometric analysis
[3] = Cytotoxicity against human […] cells after 48 hrs by crystal violet staining based assay; type: functional, cell-based
[4] = Cytotoxicity against human IGROV cells after 48 hrs by crystal violet staining based assay; type: functional, cell-based
[5] = Cytotoxicity against human SJSA1 cells after 48 hrs by crystal violet staining based assay; type: functional, cell-based; details: SJSA-1, 48 h
[6] = system: Plasma; assay: Metabolic stability in human plasma assessed as drug recovery; type: ADME, cell-free
[7] = system: A-431; assay: Cytotoxicity against human A431 cells after 48 hrs by crystal violet staining based assay; type: functional, cell-based; details: A-431, 48 h
[8] = Cytotoxicity against human B cells assessed as cell viability after 24 hrs by annexin V/propidium iodide staining based flow cytometric analysis
[9] = Cytotoxicity against human CLL cells after 24 hrs by annexin-V/PI staining based flow cytometry in presence of human plasma protein; type: functional, cell-based
[10] = Cytotoxicity against human CLL cells after 24 hrs by annexin-V/PI staining based flow cytometry; type: functional, cell-based
[11] = Plasma protein binding in human by liquid chromatography-mass spectrometric analysis; type: ADME, cell-free
[12] = Cytotoxicity against human A3 cells after 48 hrs by crystal violet staining based assay; type: functional, cell-based; details: A3, 48 h
[13] = Cytotoxicity against human CLL cells after 24 hrs by annexin-V/PI staining based flow cytometry in presence of fetal bovine serum; type: functional, cell-based
[14] = Half life of compound in water at 25 deg C; type: physicochemical
[15] = Half life of compound at pH 5; type: physicochemical

SMILES	IC50 [1] [nM]	IC50 [10] [nM]	also measured
Cc1c(Br)c(Br)n2c1C(=O)N[C@@H]1[C@H]2C[C@]2(O)[C@H]1NC(=O)N2C	> 20000	–	–
CN1C(=O)N[C@H]2[C@@H]3NC(=O)c4cc(Cl)c(Br)n4[C@@H]3C[C@]21O	–	2820	Activity [2]: Toxic; IC50 [3]: 540 nM; IC50 [4]: 260 nM; IC50 [5]: 560 nM; Drug recovery [6]: 102.1%; IC50 [7]: 340 nM; Activity [8]: Toxic; IC50 [9]: 2820 nM; PPB [11]: 46.5%; IC50 [12]: 470 nM; IC50 [13]: 2650 nM
C#CCCCO[C@@]12C[C@@H]3[C@@H](NC(=O)c4ccc(Br)n43)[C@@H]1NC(=O)N2C	> 20000	> 10000	–
Cc1ccc2n1[C@@H]1C[C@]3(O)[C@@H](NC(=O)N3C)[C@@H]1NC2=O	> 20000	9770	IC50 [3]: 280 nM; IC50 [4]: 310 nM; IC50 [5]: > 1000 nM; IC50 [7]: > 1000 nM; IC50 [12]: > 1000 nM
CN1C(=O)N[C@H]2[C@@H]3NC(=O)c4c(Br)c(Br)c(Br)n4[C@@H]3C[C@]21O	> 20000	> 10000	–
CN1C(=O)N[C@H]2[C@@H]3NC(=O)c4ccc(Br)n4[C@@H]3C[C@]21O [AGELASTATIN A]	84	710	Activity [2]: Toxic; IC50 [3]: 320 nM; IC50 [4]: 170 nM; IC50 [5]: 440 nM; IC50 [7]: 460 nM; Activity [8]: Toxic; IC50 [9]: 710 nM; IC50 [12]: 380 nM; IC50 [13]: 930 nM
CN1C(=O)N[C@H]2[C@@H]3NC(=O)c4ccc(Br)n4[C@@H]3C[C@]21OCCCc1cn(CCCC(=O)NCc2ccccc2)nn1	> 20000	> 10000	–
Cc1ccn2c1C(=O)N[C@@H]1[C@H]2C[C@]2(O)[C@H]1NC(=O)N2C	> 20000	–	–
CN1C(=O)N[C@H]2[C@@H]3NC(=O)c4cc(-c5ccccc5)c(Br)n4[C@@H]3C[C@]21O	> 20000	> 10000	–
CN1C(=O)N[C@H]2[C@@H]3NC(=O)c4cc(Br)c(Br)n4[C@@H]3C[C@]21O	7850	> 30000	IC50 [3]: > 1000 nM; IC50 [4]: > 1000 nM; IC50 [5]: > 1000 nM; IC50 [7]: > 1000 nM; IC50 [12]: > 1000 nM
CC(=O)CCO[C@@]12C[C@@H]3[C@@H](NC(=O)c4ccc(Br)n43)[C@@H]1NC(=O)N2C	1720	5740	half-life [14]: 16 h
CN1C(=O)N[C@H]2[C@@H]3NC(=O)c4cc(I)c(Br)n4[C@@H]3C[C@]21O	> 20000	–	–
CN1C(=O)N[C@H]2[C@@H]3NC(=O)c4ccc(Br)n4[C@@H]3C[C@]21N	17000	> 30000	t1/2 [15]: 170 h
Cc1cc2n(c1Br)[C@@H]1C[C@]3(O)[C@@H](NC(=O)N3C)[C@@H]1NC2=O	4530	7120	–
CN1C(=O)N[C@H]2[C@@H]3NC(=O)c4cc(C#Cc5ccccc5)c(Br)n4[C@@H]3C[C@]21O	> 20000	> 10000	–
CC(=O)c1cc2n(c1Br)[C@@H]1C[C@]3(O)[C@@H](NC(=O)N3C)[C@@H]1NC2=O	> 20000	> 10000	–
CN1C(=O)N[C@H]2[C@@H]3NC(=O)c4cc(-c5ccccc5)c(-c5ccccc5)n4[C@@H]3C[C@]21O	> 20000	> 10000	–
CN1C(=O)c2ccc(Br)n2[C@@H]2C[C@]3(O)[C@@H](NC(=O)N3C)[C@@H]21 (racemic)	> 20000	–	–
Cc1c(C)c2n(c1Br)[C@@H]1C[C@]3(O)[C@@H](NC(=O)N3C)[C@@H]1NC2=O	> 20000	–	–

Reference: ChEMBL document CHEMBL3784975 (Bioorg Med Chem Lett, 2016)
